From US20250099033A1, “HIGH THROUGHPUT SCREENING METHOD FOR THE IDENTIFICATION OF PS[…]” (FRIEDRICH MIESCHER INSTITUTE FOR BIOMEDICAL RESEARCH, priority 2022, published 2025)
Entries after “also recorded” stand apart in the source; their conditions may differ.

Test system: Tlx3 positive layer 5 IT neurons
Assay: Widefield calcium imaging of dorsal cortex in Tlx3-Cre x Ai148 mice (GCaMP6 in layer 5 IT neurons), before and after drug injection
Type: in vivo
Conditions: for Pearson's correlation of activity between cortical regions (all region pairs): single injection, after vs naïve; for long-range activity correlations (drug induced difference, normalized to naïve): region pairs above 0.9 of the bregma-lambda distance
From the text: All animal procedures were approved by and carried out in accordance with guidelines of the Veterinary Department of the Canton Basel-Stadt, Switzerland. The mice used in this study were kept on a C57BL/6 background and were of the following genotype: 6 C57/Bl6 (Charles River Laboratories), 4 Emx1-Cre mice (Gorski et al., 2002), 4 Cux2-CreERT2 (Franco et al., 2012), 7 Scnn1a-Cre (Madisen et al., 2010), 15 Tlx3-Cre(PL56) (Gerfen et al., 2013), 3 Ntsr1-Cre (Gong et al., 2007), 2 PV-Cre (Hippenmeyer et al., 2005), 6 VIP-Cre (Taniguchi et al., 2011), 5 Sst-Cre (Taniguchi et al., 2011) were used for widefield calcium imaging. Ai148 ((Daigle et al., 2018), Jackson Laboratories, stock #030328) mice were used as breeders to drive GCaMP6f in Cre positive neurons. 7 C57BL/6 were used for experiments controlling for hemodynamic responses. To induce expression of Cre in the Cux2-CreERT2 line, mice were kept for at least 1 week on Tamoxifen containing food (Envigo, 400 mg Tamoxifen per kg of food) as their only food source. Mice were group housed in a vivarium (light/dark cycle: 12/12 hours). Experimental mice used were of both sexes.
For all surgical procedures, mice were anesthetized using a mixture of Fentanyl (0.05 mg/kg; Actavis), Midazolam (5.0 mg/kg; Dormicum, Roche) and Medetomidine (0.5 mg/kg; Domitor, Orion). In a subset of mice (6 C57/Bl6, 4 Emx1-Cre, 4 Sst-Cre mice) we injected an AAV coated with the PHP.eb capsid (Chan et al., 2017) retroorbitally ([…] each eye of at least 10^13 GC/ml) to drive expression pan-neuronally or cell type specificly of GCaMP6 under either the Ef1α or hSyn promoter. For hemodynamic response control experiments, the inventors used an AAV PHP.eb Ef1α-GFP to pan-neuronally transfect GFP. To improve optical access to the cortex, they implanted crystal skull cranial windows (Kim et al., 2016). Prior to removing the skull plate overlying dorsal cortex, they zeroed bregma with a digital readout attached to the stereotax for later use as a landmark. Superglue (Pattex) was used to close the craniotomy. […] A custom-machined titanium head bar was attached to the skull using dental cement (Paladur, Heraeus). An epifluorescence overview image was taken to mark reference points on the dorsal cortical surface. Anesthesia was antagonized by an intraperitoneal injection of a mixture of Flumazenil (0.5 mg/kg; Anexate, Roche) and Atipamezole (2.5 mg/kg; Antisedan, Orion Pharma), analgesia was achieved by injecting Buprenorphine (0.1 mg/kg; Reckitt Benckiser Healthcare (UK) Ltd.) and Metacam (5 mg/kg; Boehringer Ingelheim), and mice were subsequently returned to their home cage. Imaging commenced not before 1 week after headbar implantation and not before at least 3 weeks had passed in the cases in which AAVs had been used to transfect neurons. Clozapine (Sigma), Aripiprazole (Otsuka Pharmaceutical), Haloperidol (Janssen) and Amphetamine (Hänseler) were intraperitoneally injected at […] body weight, respectively.
For all experiments we used a virtual reality setup as previously described (Leinweber et al., 2014). Mice were head-fixed and free to run on a spherical, air supported Styrofoam ball. Rotation of the ball was coupled to movement in a virtual reality environment. A virtual corridor was projected (Samsung SP-F10M) onto a toroidal screen positioned in front of the mice covering approximately 240 degrees horizontally and 100 degrees vertically of the field of view. […]

Structure (SMILES) | Pearson's correlation of activity between cortical regions (all region pairs) | long-range activity correlations (drug induced difference, normalized to naïve) | short-range activity correlations (drug induced difference, normalized to naïve) (region pairs below 0.9 of the bregma-lambda distance)
CC(N)Cc1ccccc1 (stereo not drawn) [Amphetamine] | did not affect activity correlations; also recorded: absent | – | –
O=C1CCc2ccc(OCCCCN3CCN(c4cccc(Cl)c4Cl)CC3)cc2N1 [Aripiprazole] | mimicked the decorrelation of dorsal cortex activity observed with Clozapine; also recorded: decorrelation of the activity patterns of Tlx3 positive layer 5 IT neurons was preserved | significantly reduced | significantly reduced
O=C(CCCN1CCC(O)(c2ccc(Cl)cc2)CC1)c1ccc(F)cc1 [Haloperidol] | mimicked the decorrelation of dorsal cortex activity observed with Clozapine; also recorded: decorrelation of the activity patterns of Tlx3 positive layer 5 IT neurons was preserved | reduced long-range activity correlations | –
